Key:
chitin synthase PsChs1 [1] = biological target: T1, chitin synthase PsChs1 (Phytophthora sojae, UniProt G4Z2L3); assay: cryo-EM structure ([…] Å) plus enzyme inhibition kinetics (competitive Ki); type: biochemical
T1 construct: gene CHS1; full-length PsChs1 with C-terminal tandem twin Strep tag and Flag tag; residues 40-860 built, 743-758 disordered; homodimer

chitin synthase PsChs1 [2] = biological target: T1, chitin synthase PsChs1; assay: cryo-EM structure ([…] Å); type: binding
[3] = biological target: the molecule itself; assay: AUC; purified recombinant PsChs1 in the presence of detergent; molar mass of the main peak compared with the 107 kDa monomer
[4] = biological target: the molecule itself; assay: cryo-EM structure; purified protein at about 5 mg/ml in digitonin buffer; apo or with UDP-GlcNAc, UDP/(GlcNAc)3, UDP or NikZ; C2 symmetry imposed

Molecule: C[C@@H]([C@H](N)C(=O)N[C@H](C(=O)O)[C@H]1O[C@@H](n2ccc(=O)[nH]c2=O)[C@H](O)[C@@H]1O)[C@H](O)c1ccc(O)cn1 [NikZ, nikkomycin Z]
- Ki (chitin synthase PsChs1 [1]): 151 ± 4.8 µM

Molecule: O=c1ccn([C@@H]2O[C@H](COP(=O)(O)OP(=O)(O)O)[C@@H](O)[C@H]2O)c(=O)[nH]1 [UDP]
- cryo-EM structure (3.1 Å) (chitin synthase PsChs1 [2]): The UDP-bound dimeric PsChs1 structure represents its nascent chitin-released state

B1: Phytophthora sojae chitin synthase PsChs1 (enzyme)
chain: MSGAPPPSSGFAPRSYGQQPLSHAPRSSMMSVEYDGIPLPPPSIRSCGSQQYVTSYIPTGAAFPPSSVQDMISSMKSYASATDLVRTYSEIPSVEEALSTLDRAAAALNARRYRDALKLYLEGGYAMANVAERQANPKICNLLTSKGFETLNWCARLCDWIEGRIKEKHPRPGVHKVGIPVSNWDEDWVGPFMDEEEARRMWYTPVYCPHPIDFSNLGYRLRCVETGRRPRLMICITMYNEGPQQLKATLKKLANNLAYLKEQMPGDEKSLTGAFAGDDVWQNVLVCIVADGREQVHPKTLDYLEAIGLYDEDLLTINSAGIGAQCHLFEHTLQLSVNGKCLLPIQTVFALKENKASKLDSHHWYFNAFAEQIQPEYTAVMDVGTMLTKSALYHLLFAFERNHQIGGACGQLTVDNPFENLSNWVISAQHFEYKISNILDKSLESCFGFISVLPGAFSAYRYEAIRGAPLDAYFQTLNIELDVLGPFIGNMYLAEDRILSFEVVARKNCNWTMHYVKDAVARTDVPHDLVGLISQRKRWLNGAFFATLFSIWNWGRIYSESKHTFVRKMAFLVFYVYHLLYTAFGFFLPANLYLALFFIVFQGFQQNRLEFIDTSEYSQTVLDCAVYIYNFSYLFGLLMLIIIGLGNNPKHMKLTYYFVGAVFGLMMMLSSLVGAGIFFSTPATVHSIVVSILTVGVYFIASALHGEVHHIFMTFTHYTALIPSFVNIFTIYSFCNLQDLSWGTKGLHDDPLLAASLDETEKGDFKDVIAKRRALEELRREEKERVENRKKNFEAFRTNVLLTWAFSNLIFALFVVYFASSSTYMPVLYIFVASLNTCRLLGSIGHWVYIHTEGLRGRVIDKSECGNGTGRYPQNSYVQLEEHYAALAEDQRTYASGRTNASVRTVNDVSSAA
notes: also called native PsChs1; wild-type PsChs1
- stoichiometry N [3]: 2

B2: PsChs1 E495A (used for the UDP-GlcNAc-bound structure) (enzyme)
chain: MSGAPPPSSGFAPRSYGQQPLSHAPRSSMMSVEYDGIPLPPPSIRSCGSQQYVTSYIPTGAAFPPSSVQDMISSMKSYASATDLVRTYSEIPSVEEALSTLDRAAAALNARRYRDALKLYLEGGYAMANVAERQANPKICNLLTSKGFETLNWCARLCDWIEGRIKEKHPRPGVHKVGIPVSNWDEDWVGPFMDEEEARRMWYTPVYCPHPIDFSNLGYRLRCVETGRRPRLMICITMYNEGPQQLKATLKKLANNLAYLKEQMPGDEKSLTGAFAGDDVWQNVLVCIVADGREQVHPKTLDYLEAIGLYDEDLLTINSAGIGAQCHLFEHTLQLSVNGKCLLPIQTVFALKENKASKLDSHHWYFNAFAEQIQPEYTAVMDVGTMLTKSALYHLLFAFERNHQIGGACGQLTVDNPFENLSNWVISAQHFEYKISNILDKSLESCFGFISVLPGAFSAYRYEAIRGAPLDAYFQTLNIELDVLGPFIGNMYLAADRILSFEVVARKNCNWTMHYVKDAVARTDVPHDLVGLISQRKRWLNGAFFATLFSIWNWGRIYSESKHTFVRKMAFLVFYVYHLLYTAFGFFLPANLYLALFFIVFQGFQQNRLEFIDTSEYSQTVLDCAVYIYNFSYLFGLLMLIIIGLGNNPKHMKLTYYFVGAVFGLMMMLSSLVGAGIFFSTPATVHSIVVSILTVGVYFIASALHGEVHHIFMTFTHYTALIPSFVNIFTIYSFCNLQDLSWGTKGLHDDPLLAASLDETEKGDFKDVIAKRRALEELRREEKERVENRKKNFEAFRTNVLLTWAFSNLIFALFVVYFASSSTYMPVLYIFVASLNTCRLLGSIGHWVYIHTEGLRGRVIDKSECGNGTGRYPQNSYVQLEEHYAALAEDQRTYASGRTNASVRTVNDVSSAA
notes: source: HEK293F, transiently transfected, purified as the native PsChs1 (Strep-TactinXT, anti-Flag M2 resin, SEC)
- stoichiometry N [4]: 2

Reference: paper PMC9556331, “Structural basis for directional chitin biosynthesis” (Nature, 2022)
